This is an account of results in patent US20130165417A1, “METHODS AND COMPOSITIONS FOR TREATING ACE2-RELATED DISORDERS” (UNIVERSITY OF FLORIDA RESEARCH FOUNDATION, priority 2010, published 2013).

The test system of data set [1] is models of pulmonary hypertension. Briefly: Two models of pulmonary hypertension. The format is in vivo.
Data set [2] deals with spontaneously hypertensive rats (SHRs). Description: Direct blood pressure and heart rate measurement after IV bolus, SHRs. The format is in vivo, rat. As for the experimental part:
(§1) Male Wistar-Kyoto (WKY) rats and spontaneously hypertensive rats (SHRs) were purchased from Charles River Laboratories (Wilmington, Mass., USA). All procedures were performed in conformity with approved Institutional Animal Care and Use Committee protocols and University of Florida regulations.
(§2) Cannulation of the animals (WKY rats and SHRs) was performed 24 h prior to the start of the drug administration and direct blood pressure (BP) measurement. Animals were anesthetized with a mixture of ketamine, xylazine, and acepromazine (30, 6, and 1 mg/kg, respectively). The two types of the cannulae used were: 1) a polyethylene cannula (PE-50, Clay Adams) introduced into the carotid artery for direct BP measurements and 2) a silicone elastomer cannula (Helix Medical) introduced into the descending jugular vein for acute intravenous (IV) bolus injections of the drug. Both cannulae were filled with heparin saline (40 U/mL, Sigma), and sealed with stylets. The IV drug administration of diminazene aceturate (DIZE) (LKT laboratories, St. Paul, Minn., USA) and the dose-response curves in WKYs and SHRs were obtained in awake, freely moving animals after a 24 h recovery period. Doses of diminazene aceturate (DIZE) (0.04, […], 0.6, 1.25, 2.5, 5 and 10 mg/kg) were administered as an IV bolus via the jugular cannula, and BP data recording was interfaced by a PowerLab (ADlnstruments) signal transduction unit. The data analysis was done using the Chart program (PowerLab system).

Data set [3] deals with monocrotaline (MCT) treated rats. Description: Monocrotaline (MCT) treated rats, pulmonary hypertension. The format is in vivo, rat.
The next data set deals with T1, Recombinant ACE (Homo sapiens, UniProt P12821).
T1 construct: purchased R&D Systems, Minneapolis, Minn; 929-ZN-10
T1 sequence (P12821 30-1306): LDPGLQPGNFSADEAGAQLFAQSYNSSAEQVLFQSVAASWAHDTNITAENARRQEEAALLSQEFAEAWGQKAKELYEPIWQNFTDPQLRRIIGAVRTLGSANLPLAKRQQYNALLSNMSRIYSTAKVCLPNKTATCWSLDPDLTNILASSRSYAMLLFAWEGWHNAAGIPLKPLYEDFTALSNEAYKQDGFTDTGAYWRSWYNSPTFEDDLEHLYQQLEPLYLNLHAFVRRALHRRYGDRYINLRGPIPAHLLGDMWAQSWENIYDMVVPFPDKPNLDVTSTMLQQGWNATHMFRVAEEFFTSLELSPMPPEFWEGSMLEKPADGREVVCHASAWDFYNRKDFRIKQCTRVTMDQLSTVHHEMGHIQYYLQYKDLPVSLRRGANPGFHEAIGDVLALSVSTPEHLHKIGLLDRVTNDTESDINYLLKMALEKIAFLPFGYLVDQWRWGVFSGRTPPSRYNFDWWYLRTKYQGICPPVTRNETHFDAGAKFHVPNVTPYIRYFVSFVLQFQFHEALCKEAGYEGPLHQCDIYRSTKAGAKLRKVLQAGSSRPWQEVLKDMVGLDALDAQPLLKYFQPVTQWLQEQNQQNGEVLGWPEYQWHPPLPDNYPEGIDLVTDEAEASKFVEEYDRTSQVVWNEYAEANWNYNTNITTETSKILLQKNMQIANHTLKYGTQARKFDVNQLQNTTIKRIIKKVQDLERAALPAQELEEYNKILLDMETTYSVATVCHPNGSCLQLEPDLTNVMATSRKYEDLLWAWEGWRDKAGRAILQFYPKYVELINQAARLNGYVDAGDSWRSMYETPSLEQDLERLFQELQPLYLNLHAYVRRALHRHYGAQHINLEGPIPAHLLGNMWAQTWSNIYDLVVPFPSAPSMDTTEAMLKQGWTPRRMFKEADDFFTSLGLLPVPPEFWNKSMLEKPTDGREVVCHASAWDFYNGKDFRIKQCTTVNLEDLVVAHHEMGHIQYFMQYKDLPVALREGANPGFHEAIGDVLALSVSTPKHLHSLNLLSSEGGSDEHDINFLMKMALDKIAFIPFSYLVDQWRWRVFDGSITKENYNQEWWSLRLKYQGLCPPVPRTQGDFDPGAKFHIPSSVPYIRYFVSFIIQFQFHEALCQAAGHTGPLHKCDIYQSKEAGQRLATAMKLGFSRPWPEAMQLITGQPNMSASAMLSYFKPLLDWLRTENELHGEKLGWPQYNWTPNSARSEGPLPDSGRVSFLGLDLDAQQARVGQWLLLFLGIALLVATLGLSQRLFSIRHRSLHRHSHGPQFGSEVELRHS
Briefly: ACE activity assay with fluorogenic peptide substrate. The format is biochemical. The following applies: FIG. 2. As for the experimental part: (§3) Recombinant ACE and ACE2 are obtained in purified form from R&D Systems, Minneapolis, Minn. (catalog ID: 929-ZN-10 and 933-ZN-10, respectively). Substrates for ACE (fluorogenic peptide V, Mca-[…](Dnp)-OH, catalog ID: ES005), and for ACE2 (fluorogenic peptide VI, Mca-YVADAPK(Dnp)-OH, catalog ID: ES007) are obtained from R&D systems. Dry compounds are resuspended in 100% DMSO to prepare 100 mM stock solutions, according to the amount of compound and its molecular weight. Gentle heating to 60-80° C. is carried out to assist their solubilization. Compounds are further diluted to 50 mM stocks if clearly difficult to dissolve.
(§4) Activity of ACE and ACE2 are measured with a Spectra Max Gemini EM Florescence Reader (Molecular Devices). The enzyme removes the c-terminal dinitrophenyl moiety that quenches the inherent fluorescence of its 7-methoxycoumain group, resulting in an increase in fluorescence in the presence of enzyme activity. Fluorescence is measured with excitation and emission spectra of 328 nm and 392 nm, respectively. Reaction mixtures are prepared in 100 μl volumes and different concentrations of compound are tested against 10 μM substrate. 10 nM enzyme in 100 mM NaCl, 75 mM Tris, 0.5 μM ZnCl2, at pH 7.4. Samples are read every 15-20 seconds for at least 30 minutes immediately after the addition of fluorogenic peptide substrate at 37° C. […]

The target of data set [4] is T2, ACE2 (Homo sapiens, UniProt Q9BYF1). Briefly: ACE2 activity assay with fluorogenic peptide substrate. The class given is biochemical. Also noted: purchased R&D Systems, Minneapolis, Minn; 933-ZN-10. As to the method: as §3, §4
Target sequence in this assay (Q9BYF1 18-740 limits assumed): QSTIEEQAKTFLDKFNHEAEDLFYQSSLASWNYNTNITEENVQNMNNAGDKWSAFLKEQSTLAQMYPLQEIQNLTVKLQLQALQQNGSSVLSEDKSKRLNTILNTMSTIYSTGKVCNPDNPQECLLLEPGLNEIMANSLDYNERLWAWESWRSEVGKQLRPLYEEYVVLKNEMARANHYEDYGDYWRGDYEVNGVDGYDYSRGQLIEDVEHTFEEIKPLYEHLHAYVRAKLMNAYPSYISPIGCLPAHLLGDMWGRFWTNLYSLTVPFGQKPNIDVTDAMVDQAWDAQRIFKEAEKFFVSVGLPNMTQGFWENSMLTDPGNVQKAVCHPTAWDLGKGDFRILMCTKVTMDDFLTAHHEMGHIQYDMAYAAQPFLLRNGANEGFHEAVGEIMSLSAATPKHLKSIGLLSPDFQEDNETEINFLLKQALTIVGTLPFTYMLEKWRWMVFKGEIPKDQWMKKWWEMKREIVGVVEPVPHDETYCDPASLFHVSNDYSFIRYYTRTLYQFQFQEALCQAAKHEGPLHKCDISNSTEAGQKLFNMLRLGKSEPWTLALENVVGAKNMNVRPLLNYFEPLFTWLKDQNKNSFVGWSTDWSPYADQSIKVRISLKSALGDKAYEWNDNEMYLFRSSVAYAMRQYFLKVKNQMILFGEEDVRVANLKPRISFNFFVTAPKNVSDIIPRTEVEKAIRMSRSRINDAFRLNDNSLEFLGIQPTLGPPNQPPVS
In the next data set the test system is myocardial infarction. Briefly: Myocardial infarction model of cardiac disease. The class given is in vivo.
Another data set deals with Wistar Kyoto rats (WKYs). Briefly: Direct blood pressure and heart rate measurement after IV bolus, WKY rats. The class given is in vivo, rat. As to the method: as §1, §2
Data set [5] has as its system Endothelial progenitor cells harvested from pulmonary hypertensive patients. Description: Function of endothelial progenitor cells from pulmonary hypertensive patients. The format is cell-based, human. From the text: Another important finding is the effect of DIZE on stem cell function. Endothelial progenitor cells harvested from pulmonary hypertensive patients are dysfunctional and have decreased ability to repair vascular damage induced by the disease.

Data set [6] has as its target T2, ACE2. The settings on record: Donoghue et al. 2000, Tipnis et al. 2000; cited from earlier work.
Target sequence in this assay (Q9BYF1 18-805): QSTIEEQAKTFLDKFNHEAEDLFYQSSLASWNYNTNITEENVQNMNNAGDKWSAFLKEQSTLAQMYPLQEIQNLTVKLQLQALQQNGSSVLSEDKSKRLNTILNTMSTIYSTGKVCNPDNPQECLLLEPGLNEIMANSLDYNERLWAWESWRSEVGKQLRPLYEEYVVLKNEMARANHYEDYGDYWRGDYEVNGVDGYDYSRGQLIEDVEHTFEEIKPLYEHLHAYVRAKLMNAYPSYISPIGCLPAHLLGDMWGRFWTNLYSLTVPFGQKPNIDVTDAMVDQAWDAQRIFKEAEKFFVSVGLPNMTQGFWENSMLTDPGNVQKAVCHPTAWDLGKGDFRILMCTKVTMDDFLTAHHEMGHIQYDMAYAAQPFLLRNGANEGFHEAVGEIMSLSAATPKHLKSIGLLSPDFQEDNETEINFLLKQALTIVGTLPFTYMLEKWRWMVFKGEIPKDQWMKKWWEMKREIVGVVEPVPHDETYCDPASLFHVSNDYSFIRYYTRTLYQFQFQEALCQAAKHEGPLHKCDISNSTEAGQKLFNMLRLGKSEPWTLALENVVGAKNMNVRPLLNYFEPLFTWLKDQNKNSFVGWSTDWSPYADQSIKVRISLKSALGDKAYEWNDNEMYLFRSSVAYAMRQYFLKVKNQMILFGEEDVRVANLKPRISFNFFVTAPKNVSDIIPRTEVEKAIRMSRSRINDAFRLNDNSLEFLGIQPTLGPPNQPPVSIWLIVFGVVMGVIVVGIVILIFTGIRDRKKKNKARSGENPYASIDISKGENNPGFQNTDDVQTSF

Entries after “also recorded” stand apart in the source; their conditions may differ.

Consider `N=C(N)c1ccc(N=NNc2ccc(C(=N)N)cc2)cc1` [DIZE, 4,4′-(1-Triazene-1,3-diyl)bis(benzenecarboximidamide)], for which the progression of pathophysiology entry in [1] (administered after the development of pulmonary hypertension) was “arrested”. Also, in [1] (pretreatment), the “development of the disorder” value was “completely prevents the development of these disorders”, the fibrosis entry is on record as “virtually absent” and the pulmonary pressure entry is given as “nearly normalized”. Also, in data set [2] (SHR, acute IV bolus), the “effect on heart rate” value was “does not affect the heart rate”. Further, the “reduction of mean arterial pressure (MAP)” value in data set [2] (SHRs, 5 mg/kg intravenous, n=6) amounted to 85±11 mmHg. Besides, the “change in mean arterial pressure (MAP)” value in [2] (SHRs, intravenous administration, result in words) was “transient and dose dependent decrease; also recorded: greater reduction in blood pressure in SHRs compared to WKY control rats”. For the same compound, the “MCT-induced right ventricular fibrosis” value in [3] (FIG. 6) is “causes reversal”. For the same compound, in [3] (MCT treated rats, FIG. 4), the “Right Ventricular Systolic Pressure (RVSP) and Right Ventricular Hypertrophy (RVH), prevention” value is “prevents increase”. For the same compound, the “RVSP and RVH, reversal” value in [3] (MCT-treated rats, FIG. 5) is given as “reverses increases”. Also, the “effect on ACE activity” value on Recombinant ACE is on record as “increases ACE2 but not ACE activity”. Further, at ACE2 [4] (observed with 50 μM), the “maximal increase in ACE2 activity (Vmax)” value is 2.3 fold. For the same compound, on ACE2 [4] (result in words), the “effect on ACE2 activity” value was “dose-dependent increase in ACE2 activity; also recorded: enhances specifically the ACE2 enzyme activity”. The MI-induced cardiac dysfunctions entry in the data set with myocardial infarction (FIG. 3) was “attenuates”. In addition, in the data set on myocardial infarction (pretreatment), the cardiac function entry is “significantly improves cardiac function”, the “development of the disorder” value is “completely prevents the development of these disorders” and the infarct area entry is “reduces infarct area”. The “reduction of mean arterial pressure (MAP)” value in the data set on Wistar Kyoto rats (WKYs) (WKY rats, 5 mg/kg intravenous, n=6) worked out at 50±9 mmHg. The “effect on heart rate” value in the data set on Wistar Kyoto rats (WKYs) (WKY, acute IV bolus) is recorded as “does not affect the heart rate”. In addition, the “change in mean arterial pressure (MAP)” value in the data set on Wistar Kyoto rats (WKYs) (WKYs, intravenous administration, result in words) is “transient and dose dependent decrease”. In data set [5], the “endothelial progenitor cell dysfunction (ability to repair vascular damage)” value is listed as “significantly improves this dysfunction”.

Take `C[C@H](CS)C(=O)N1CCC[C@H]1C(=O)O` [captopril]: on ACE2 [6], the “effect on activity of ACE2” value is recorded as “do not significantly affect”.
